Patent publication US7902226B2, “Dehalogeno-compounds” (Daiichi Pharmaceutical Co., Ltd., priority 2000, dated 2011)
Values after ≈ are worked out from the molar mass of the structure shown.

Assays:
[1] = system: Ps. maltophilia, IID-1275; test: Antibacterial activity (MIC), standard method of the Japan Society of Chemotherapy; format: cell-based; settings: Stenotrophomonas maltophilia, IID1275
Description: (§1) Antibacterial activities of the compounds of this invention were measured in accordance to the standard method designated by the Japan Society of Chemotherapy, with the results shown as MIC values (microgram/ml) units in the following table. For comparison with the MIC values of the compounds of this invention, MIC values of levofloxacin (LVFX), ciprofloxacin (CPFX) and 7-[3-(R)-(1-aminocyclopropyl)pyrrolidin-1-yl]-6-fluoro-1-[2-(S)-fluoro-1-(R)-cyclopropyl]-8-methyl-1,4-dihydro-4-oxoquinoline-3-carboxylic acid (Reference drug 1), which is described in PCT/JP96/00208, are also shown in the table.

S. epidermidis, 56500 = test: as above; format: cell-based; settings: Staphylococcus epidermidis
Description: as §1

K. pneumoniae, Type 1 = test: as above; format: cell-based; settings: Klebsiella pneumoniae, TYPE1
Description: as §1

S. flexneri, 2A 5503 = test: as above; format: cell-based; settings: Shigella flexneri, 2A5503
Description: as §1

S. aureus, 870307 = test: as above; format: cell-based; settings: Staphylococcus aureus
Description: as §1

Str. pneumoniae J24 = test: as above; format: cell-based; settings: Streptococcus pneumoniae
Description: as §1

E. coli, NIHJ = test: as above; format: cell-based; settings: Escherichia coli
Description: as §1

Ps. aeruginosa, 32104 = test: as above; format: cell-based; settings: Pseudomonas aeruginosa
Description: as §1

Ser. marcescens, 10100 = test: as above; format: cell-based; settings: Serratia marcescens
Description: as §1

Ps. aeruginosa, 32121 = test: as above; format: cell-based; settings: Pseudomonas aeruginosa
Description: as §1

Pr. vulgalis, 08601 = test: as above; format: cell-based
Description: as §1

S. aureus, 209P = test: as above; format: cell-based; settings: Staphylococcus aureus
Description: as §1

Str. pyogenes, G-36 = test: as above; format: cell-based; settings: Streptococcus pyogenes, G36
Description: as §1

[2] = system: Str. faecalis, ATCC 19433; test: as above; format: cell-based; settings: Enterococcus faecalis, ATCC19433
Description: as §1

bone marrow of mice = test: Micronucleus test in bone marrow of mice; format: in vivo; settings: Slc:ddY male mice, 24 hours after administration
Description: For the compound described as Example 1 of this invention, the micronucleus test in bone marrow of mice was performed by the following method.
Mice groups, each consisting of five, six-week-old, Slc:ddY male mice, were used. The compound of this invention described as Example 1 and 7-[3-(R)-(1-aminocyclopropyl)pyrrolidin-1-yl]-6-fluoro-1-[2-(S)-fluoro-1-(R)-cyclopropyl]-8-methyl-1,4-dihydro-4-oxoquinoline-3-carboxylic acid (Reference drug 1) described in PCT/JP96/00208 were dissolved in and diluted with 0.1 mol/l NaOH/saline solution. The 0.1 mol/l NaOH/saline solvent was used as a control, and as a positive Reference drug, a drug solution, prepared by dissolving and diluting cyclophosphamide (CP) in saline solution, was used. All drug solutions were disinfected by filtration through Mylex GS 0.22 μm filters. With each drug solution, a single intravenous dose of 10 ml/kg was administered at an administration rate of 0.2 ml/min. 24 hours after administration, […] were collected from the femur bone, the smear preparations were prepared, and these were dyed with […].

| Structure (SMILES) | MIC [1] [mg/L] | MIC (S. epidermidis, 56500) [mg/L] | MIC (K. pneumoniae, Type 1) [mg/L] | MIC (S. flexneri, 2A 5503) [mg/L] | MIC (S. aureus, 870307) [mg/L] | MIC (Str. pneumoniae J24) [mg/L] | MIC (E. coli, NIHJ) [mg/L] | MIC (Ps. aeruginosa, 32104) [mg/L] | MIC (Ser. marcescens, 10100) [mg/L] | MIC (Ps. aeruginosa, 32121) [mg/L] | MIC (Pr. vulgalis, 08601) [mg/L] | MIC (S. aureus, 209P) [mg/L] | MIC (Str. pyogenes, G-36) [mg/L] | MIC [2] [mg/L] | micronucleus induction in comparison to the control (bone marrow of mice; single intravenous dose, 50 and 100 mg/kg administration groups) | micronucleus induction, judgment result (bone marrow of mice; single intravenous dose, 25, 50, and 100 mg/kg administration groups, versus control) |
| --- | --- | --- | --- | --- | --- | --- | --- | --- | --- | --- | --- | --- | --- | --- | --- | --- |
| Cc1c(N2CC[C@@H](C3(N)CC3)C2)c(F)cc2c(=O)c(C(=O)O)cn([C@@H]3C[C@@H]3F)c12 [Reference drug 1, 7-[3-(R)-(1-aminocyclopropyl)pyrrolidin-1-yl]-6-fluoro-1-[2-(S)-fluoro-1-(R)-cyclopropyl]-8-methyl-1,4-dihydro-4-oxoquinoline-3-carboxylic acid, reference compound] | ≤ 0.003 | ≤ 0.003 | 0.006 (≈ 0.0149 µM) | ≤ 0.003 | 0.012 (≈ 0.0297 µM) | ≤ 0.003 | ≤ 0.003 | 0.025 (≈ 0.062 µM) | 0.012 (≈ 0.0297 µM) | 0.012 (≈ 0.0297 µM) | ≤ 0.003 | ≤ 0.003 | ≤ 0.003 | 0.006 (≈ 0.0149 µM) | clearly seen |  |
| Cc1c(N2CC[C@@H](C3(N)CC3)C2)ccc2c(=O)c(C(=O)O)cn([C@@H]3C[C@@H]3F)c12 [Example 1, 7-[3-(R)-(1-aminocyclopropyl)pyrrolidin-1-yl]-1-[2-(S)-fluoro-1-(R)-cyclopropyl]-1,4-dihydro-8-methyl-4-oxoquinoline-3-carboxylic acid] | 0.2 (≈ 0.519 µM) | ≤ 0.003 | 0.025 (≈ 0.0649 µM) | 0.006 (≈ 0.0156 µM) | 0.05 (≈ 0.13 µM) | ≤ 0.003 | ≤ 0.003 | 0.05 (≈ 0.13 µM) | 0.025 (≈ 0.0649 µM) | 0.025 (≈ 0.0649 µM) | ≤ 0.003 | ≤ 0.003 | ≤ 0.003 | 0.012 (≈ 0.0311 µM) |  | negative |
